From ChEMBL document CHEMBL1201862, “PubChem BioAssay data set” (2004) come the findings set out here.

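Grown in 96-well plates, cells were treated for 48 hours with each compound at five concentrations. Insufficient inhibition: endpoint recorded as highest concentration tested. GI50: concentration for 50% inhibition of growth.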 Activity calls are given as the source filed them. Rule as the data show it: active = GI50 up to about 1.1 µM and inactive = higher. Where only a bound is given, the exact number is not on record here.

Some test systems named below: A549; CAKI-1; DU-145; EKVX; HCT-15; MDA-MB-435; NCI-H226; NCI-H23; NCI-H460; OVCAR-8; SF-539; SK-MEL-28; SN12C; SNB-19; SNB-75; SW-620; UACC-62; MOLT-4; SR.
Common to all, as to test: inhibition of tumour cell growth, NCI panel, 48 h

Regarding `S=C(N/N=C\C=N/NC(=S)N1CCCCC1)N1CCCCC1`, the GI50 with A549 is 0.107 µM (active); with CAKI-1 it was 0.619 µM (active); with DU-145, 0.202 µM (active); in the experiment on EKVX, 0.515 µM (active); in the experiment on HCT-15 it was 0.0802 µM; with MDA-MB-435, 1.01 µM (active). The GI50 is 0.489 µM (active) with NCI-H226; 1.16 µM (inactive) in the experiment on NCI-H23; < 0.0151 µM (active) in the experiment with NCI-H460; 0.178 µM (active) with OVCAR-8; 0.435 µM (active) with SF-539; 0.682 µM (active) in the experiment with SK-MEL-28. Also, the GI50 with SN12C is 0.723 µM (active); with SNB-19, 0.41 µM (active); in the experiment on SNB-75, 0.731 µM (active); in the experiment on SW-620, 0.0977 µM (active); in the experiment on UACC-62, 0.594 µM (active).
With `COc1c(O)c(OC)c(C(=O)/C=C/c2ccccc2)c(O)c1OC` [PEDICIN], the GI50 with CAKI-1 is 56.1 µM (inactive); with DU-145, 29.1 µM (inactive); with EKVX, 23.1 µM (inactive); with HCT-15, 28.8 µM; in the experiment on MDA-MB-435 it was 27.9 µM (inactive); in the experiment with MOLT-4, 30.5 µM (inactive). The GI50 in the experiment with NCI-H226 was 29.4 µM (inactive); in the experiment on NCI-H460, 19.1 µM (inactive); in the experiment with OVCAR-8 it was 17.9 µM (inactive); in the experiment with SF-539 it was 30.5 µM (inactive); with SK-MEL-28, 33.3 µM (inactive); with SN12C, 18.3 µM (inactive). Also, the values for the GI50 with SNB-19, in the experiment on SNB-75 and in the experiment on SW-620 were 92 µM (inactive), 30.3 µM (inactive) and 27.9 µM (inactive), respectively.
Regarding `CCCCCCCC/C=C(\Br)C(O)C(Br)Br` (stereo not drawn), the GI50 in the experiment with A549 is 31.4 µM (inactive); with CAKI-1, 19.5 µM (inactive); with DU-145 it was 38.6 µM (inactive); in the experiment on EKVX, 28.2 µM (inactive); with HCT-15, 20.6 µM; in the experiment on MDA-MB-435 it was 21.5 µM (inactive). Moreover, the GI50 was > 100 µM (inactive) in the experiment on MOLT-4; 22.1 µM (inactive) in the experiment with NCI-H23; 30.4 µM (inactive) with NCI-H460; 23.4 µM (inactive) in the experiment with OVCAR-8; 29.2 µM (inactive) in the experiment on SK-MEL-28; 17.3 µM (inactive) in the experiment on SN12C. Also, the GI50 was 31.8 µM (inactive) in the experiment on SNB-19; 36 µM (inactive) in the experiment with SNB-75; 40.8 µM (inactive) with SR; 16.3 µM (inactive) in the experiment with SW-620; 19.3 µM (inactive) in the experiment with UACC-62.
As for `COc1ccc2c3c1OC1C(=O)C=CC4(CC2)N(C)CCC314` (stereo not drawn), the GI50 was 22.8 µM (inactive) in the experiment with A549; 20.1 µM (inactive) in the experiment on CAKI-1; 14.3 µM (inactive) in the experiment on DU-145; 19.6 µM (inactive) in the experiment with EKVX; 18.9 µM with HCT-15; 12.2 µM (inactive) in the experiment with MDA-MB-435. Also, the GI50 was 12.8 µM (inactive) in the experiment with MOLT-4; 14 µM (inactive) in the experiment on NCI-H23; 16.6 µM (inactive) in the experiment on NCI-H460; 22.5 µM (inactive) in the experiment on OVCAR-8; 22.2 µM (inactive) in the experiment on SK-MEL-28; 21.4 µM (inactive) in the experiment on SN12C. Besides, the GI50 in the experiment on SNB-19 is 19.5 µM (inactive); in the experiment with SNB-75, 28.1 µM (inactive); in the experiment with SR it was 7.21 µM (inactive); in the experiment with SW-620 it was 14.2 µM (inactive); in the experiment on UACC-62 it was > 10 µM (inactive).
For `CC(=O)Nc1sc([N+](=O)[O-])cc1S(=O)(=O)c1ccc(Cl)cc1`, the GI50 is 2.4 µM (inactive) with A549; 3.31 µM (inactive) in the experiment on CAKI-1; 3.3 µM (inactive) in the experiment on DU-145; 3.59 µM (inactive) in the experiment with EKVX; 3.85 µM in the experiment on HCT-15; 3.3 µM (inactive) in the experiment with MDA-MB-435. In addition, the GI50 in the experiment with MOLT-4 was 3.78 µM (inactive); with NCI-H226, 3.96 µM (inactive); in the experiment with NCI-H23, 2.39 µM (inactive); with NCI-H460, 1.65 µM (inactive); with OVCAR-8, 3.78 µM (inactive); with SF-539, 3.18 µM (inactive). Besides, the GI50 in the experiment on SK-MEL-28 was 11 µM (inactive); in the experiment with SN12C, 3.8 µM (inactive); in the experiment with SNB-19, 3.31 µM (inactive); with SNB-75, 2.21 µM (inactive); in the experiment on SW-620, 5.37 µM (inactive); with UACC-62 it was 1.67 µM (inactive).
As to `CC12CC1C(c1cccc([N+](=O)[O-])c1)(c1cccc([N+](=O)[O-])c1)N=N2` (stereo not drawn), the GI50 in the experiment with A549 is 54.7 µM (inactive); in the experiment on DU-145 it was 24.3 µM (inactive); with EKVX, 37.7 µM (inactive); in the experiment with HCT-15, 20.4 µM; in the experiment on MDA-MB-435 it was 36.5 µM (inactive); in the experiment on MOLT-4 it was 28.3 µM (inactive). The GI50 is 25.3 µM (inactive) with NCI-H226; 19.1 µM (inactive) with NCI-H23; 27.4 µM (inactive) with NCI-H460; 25.1 µM (inactive) in the experiment on OVCAR-8; 25.5 µM (inactive) in the experiment on SF-539; 22.1 µM (inactive) in the experiment with SK-MEL-28. Further, the GI50 was 25.6 µM (inactive) with SN12C; 32.5 µM (inactive) in the experiment with SNB-19; 24.6 µM (inactive) in the experiment on SNB-75; 19.6 µM (inactive) in the experiment with SR; 23.2 µM (inactive) in the experiment with SW-620; 15.9 µM (inactive) with UACC-62.
Turning to `CC(C)=CCc1[nH]c2ccccc2c1C1=C(O)C(=O)C(c2c(CC=C(C)C)[nH]c3ccccc23)=C(O)C1=O`, the GI50 in the experiment on A549 is 0.587 µM (active); in the experiment on CAKI-1, 1.73 µM (inactive); in the experiment with DU-145, 2.39 µM (inactive); in the experiment on EKVX, 2.19 µM (inactive); in the experiment with HCT-15, 1.33 µM; in the experiment on MDA-MB-435 it was 0.608 µM (active). Further, the GI50 in the experiment on MOLT-4 is 1.96 µM (inactive); in the experiment with NCI-H226, 1.73 µM (inactive); in the experiment on NCI-H23, 1.91 µM (inactive); with NCI-H460, 1.34 µM (inactive); in the experiment with OVCAR-8, 1.53 µM (inactive); in the experiment on SK-MEL-28, 0.757 µM (active). Further, the GI50 with SN12C was 1.26 µM (inactive); in the experiment with SNB-19 it was 2.03 µM (inactive); in the experiment on SNB-75, 0.604 µM (active); with SR it was 1.17 µM (inactive); with SW-620, 3.27 µM (inactive); with UACC-62, 0.377 µM (active).
As to `O/N=N/c1ccc(-c2ccccc2)cn1`, the GI50 is 21.7 µM (inactive) with A549; 4.55 µM (inactive) in the experiment with CAKI-1; 2.22 µM (inactive) in the experiment with DU-145; 7.5 µM (inactive) in the experiment on EKVX; 19.6 µM in the experiment with HCT-15; 14.7 µM (inactive) in the experiment on MDA-MB-435. The GI50 in the experiment on MOLT-4 was 0.0755 µM (active); in the experiment on NCI-H226, 17.9 µM (inactive); with NCI-H23, 4 µM (inactive); in the experiment on NCI-H460 it was 6.25 µM (inactive); with OVCAR-8 it was 15 µM (inactive); in the experiment on SF-539 it was 17.4 µM (inactive). In addition, the GI50 in the experiment with SK-MEL-28 was 45.2 µM (inactive); in the experiment on SN12C, 10.8 µM (inactive); in the experiment with SNB-19, 18.1 µM (inactive); in the experiment with SNB-75, 6.46 µM (inactive); in the experiment with SW-620, 10.7 µM (inactive); with UACC-62 it was 7.64 µM (inactive).
`COc1ccccc1-c1nc(-c2ccccc2O)n[nH]1`: the GI50 was > 100 µM (inactive) in the experiment on A549; > 100 µM (inactive) in the experiment with CAKI-1; > 100 µM (inactive) in the experiment on DU-145; 45.9 µM in the experiment on HCT-15; > 100 µM (inactive) in the experiment with MDA-MB-435; > 100 µM (inactive) with MOLT-4. Besides, the GI50 in the experiment with NCI-H226, in the experiment with NCI-H23, with NCI-H460, in the experiment on OVCAR-8, with SF-539 and in the experiment with SK-MEL-28 was > 100 µM (inactive) throughout. Moreover, the GI50 in the experiment on SN12C, with SNB-19, in the experiment with SNB-75, in the experiment on SW-620 and in the experiment with UACC-62 was > 100 µM (inactive) each time.
With `COc1cc(/C=C2\CC3C4CC[C@H]5C[C@@H](O)CC[C@]5(C)C4CC[C@]3(C)C2=O)cc(OC)c1OC` (stereo partly drawn), the GI50 is 7.18 µM (inactive) in the experiment on A549; 9.4 µM (inactive) with CAKI-1; 27.2 µM (inactive) in the experiment on DU-145; 12 µM (inactive) in the experiment on EKVX; 9.59 µM in the experiment with HCT-15; 13.5 µM (inactive) with MDA-MB-435. Further, the GI50 with MOLT-4 is 4.82 µM (inactive); in the experiment with NCI-H226, 13.6 µM (inactive); with NCI-H23, 20.4 µM (inactive); with NCI-H460, 10.7 µM (inactive); in the experiment with OVCAR-8 it was 15.8 µM (inactive); with SF-539 it was 22.6 µM (inactive). The GI50 in the experiment with SK-MEL-28 was 32.7 µM (inactive); in the experiment on SN12C, 15.2 µM (inactive); with SNB-19, 17.5 µM (inactive); in the experiment with SNB-75, 14.4 µM (inactive); in the experiment with SW-620 it was 24.8 µM (inactive); with UACC-62, 17.6 µM (inactive).
As to `O=C(O)c1cccc(/C=C/c2ccccc2)c1`, the GI50 was > 100 µM (inactive) in the experiment on A549; > 100 µM (inactive) with CAKI-1; 3.08 µM (inactive) with DU-145; > 100 µM (inactive) in the experiment on EKVX; above 100 µM in the experiment on HCT-15; > 100 µM (inactive) with MDA-MB-435. Also, the GI50 in the experiment on MOLT-4, in the experiment on NCI-H226, in the experiment on NCI-H23, in the experiment on NCI-H460, with OVCAR-8 and in the experiment on SF-539 was > 100 µM (inactive) in each case. Also, the GI50 in the experiment on SK-MEL-28, with SN12C, in the experiment on SNB-19, in the experiment on SNB-75, with SW-620 and in the experiment with UACC-62 was > 100 µM (inactive) throughout.
For `CCOC(=O)c1[nH]cc(C)c1-c1cccn1-c1ccc(Cl)cc1[N+](=O)[O-]`, the GI50 in the experiment with A549 was 23 µM (inactive); with CAKI-1, 31.7 µM (inactive); in the experiment with DU-145 it was 35.1 µM (inactive); in the experiment with EKVX, 20.6 µM (inactive); with HCT-15, 32.1 µM; in the experiment with MDA-MB-435, 19.6 µM (inactive). Besides, the GI50 is 17.1 µM (inactive) in the experiment on MOLT-4; 16.7 µM (inactive) in the experiment on NCI-H226; 23.9 µM (inactive) with NCI-H23; 18.8 µM (inactive) in the experiment with NCI-H460; 20.8 µM (inactive) in the experiment with OVCAR-8; 19.2 µM (inactive) in the experiment with SF-539. Also, the GI50 was 22.8 µM (inactive) in the experiment with SK-MEL-28; 24.7 µM (inactive) with SN12C; 19.1 µM (inactive) in the experiment with SNB-75; 23.1 µM (inactive) in the experiment on SW-620; 18.2 µM (inactive) in the experiment with UACC-62.
